Patent US20250207131A1, “MODIFIED RNA AGENTS WITH REDUCED OFF-TARGET EFFECT” (Alnylam Pharmaceuticals, Inc., priority 2018, published 2025)

Assays:
[1] = system: TTR; assay: In vitro on-target activity, primary mouse hepatocytes, transfection, RT-qPCR (TTR siRNAs); format: cell-based; details: for On-target TX: 10 nM, log2 transformed, relative to the parent
Method: Cell culture and transfections: Primary Mouse Hepatocytes (Thermo Fisher Scientific/Gibco) were transfected by adding 4.9 μL of Opti-MEM plus 0.1 μL of Lipofectamine RNAiMax per well (Invitrogen, cat #13778-150) to 5 μL of siRNA duplexes per well into a 384-well plate and incubated at room temperature for 15 minutes. 40 μL of Dulbecco's Modified Eagle Medium (Hep3b) or William's Medium (PMH) containing ˜5 ×10^3 cells were then added to the siRNA mixture. Cells were incubated for 24 hours at 37° C. and then processed for RNA purification. Experiments were performed at 10 nM and 0.1 nM doses of siRNA.
Total RNA isolation using DYNABEADS mRNA Isolation Kit: RNA was isolated using an automated protocol on a BioTek-EL406 platform using DYNABEADs (Invitrogen, cat #61012). Briefly, 70 μL of Lysis/Binding Buffer and 10 μL of lysis buffer containing 3 μL of magnetic beads were added to each well. Plates were incubated on an electromagnetic shaker for 10 minutes at room temperature and then magnetic beads were captured and the supernatant was removed. Bead-bound RNA was then washed 2 times with 150 μL Wash Buffer A and once with Wash Buffer B. Beads were then washed with 150 μL Elution Buffer, re-captured and supernatant removed.
cDNA synthesis using ABI High capacity cDNA reverse transcription kit (Applied Biosystems, cat #4368813): 12 μL of a master mix containing 1.2 μL 10× Buffer, 0.48 μL 25× dNTPs, 1.2 μL 10× Random primers, 0.6 μL Reverse Transcriptase, 0.6 μL RNase inhibitor and 7.92 μL of H2O per reaction was added to RNA isolated above. Plates were sealed, mixed, and incubated on an electromagnetic shaker for 10 minutes at room temperature, followed by 2 h 37° C.
Real time PCR: 2 μL of cDNA were added to a master mix containing 2 μL water, 0.5 μL of either an appropriate GAPDH TaqMan VIC Probe or the target probe and 5 μL Lightcycler 480 probe master mix (Roche, cat #04887301001) per well in a 384 well plate (Roche, cat #04887301001). Real time PCR was done in a LightCycler480 Real Time PCR system (Roche). Each duplex was tested in quadruplicate and data were normalized to cells transfected with a non-targeting control siRNA. To calculate relative fold change, real time data were analyzed using the ΔΔCt method and normalized to assays performed with cells transfected with a non-targeting control siRNA.
RT qPCR for Ttr mRNA quantification:_Primary mouse hepatocytes (PMH) were cultured in Williams E Medium with 10% fetal bovine serum. Transfection of cells using RNAiMAX reagent was done as per the manufacturer's recommended protocol. Thus, cells were thawed immediately prior to transfection and then plated onto 384-well plates with a seed density of ˜5000 cells/well. Pre-incubated lipid/siRNA complex (0.1 μL RNAiMax, siRNA, in 5 μL Opti-MEM for 15 min) was added to a 384-well collagen-coated plate (BioCoat; Corning) and cells were incubated for 20 h at 37° C. in an atmosphere of 5% CO2. Eight 6-fold serial dilutions ranging from 10 to 0.036 nM were used to perform dose response experiments. Media was removed before washing and lysing the cells. Using Dynabeads mRNA isolation kit according to manufacturer's protocol, RNA was extracted and subsequently reverse-transcribed with the ABI high capacity cDNA reverse transcription kit. Quantification was done by real-time PCR, whereby the cDNA (2 μL) was added to a master mix that contained 0.5 μL mouse Gapdh TaqMan Probe, 0.5 μL Ttr TaqMan probes, and 5 μL Lightcycler 480 probe master mix per well in a 384-well 50 plate. Real-time PCR was accomplished in an ABI 7900HT RT-PCR system using the ΔΔCt (RQ) assay. Each duplex and concentration was tested in four biological replicates. To calculate relative fold change, real time data were analyzed using the ΔΔCt method and normalized to assays performed with cells transfected with 10 nM nonspecific siRNA. IC50 values were calculated using a 4-parameter fit model using XLFit.

[2] = system: TTR; assay: In vitro on-target activity, primary mouse hepatocytes, free uptake (TTR siRNAs); format: cell-based; details: 1 nM, log2 transformed, relative to the parent
[3] = Temperature-dependent UV spectroscopy, Tm of modified siRNA duplexes; format: physicochemical; details: 1 μM duplex, 0.25x PBS
Method: Temperature-dependent UV Spectroscopy: The melting studies were performed at a duplex concentration of 1 μM (consisting of the modified antisense […]) in 1 cm path length quartz cells on a Cary 300 spectrophotometer equipped with a thermoprogrammer. Each cuvette contained 800 μL of sample solution covered by 200 μL of light mineral oil. Melting curves were monitored at 260 nm with a heating rate of 1° C./min from 15-90° C. Melting temperatures (Tm) were calculated from the first derivatives of the smoothed heating curves and the reported values are the result of at least two independent measurements.

[4] = system: TTR; assay: Mouse pharmacodynamic study, circulating TTR protein; format: in vivo; parameters: key: fraction of vehicle-control group mean serum TTR protein; details: mice, single dose 1 mg/kg, circulation, Day 7
Method: In mouse pharmacodynamic studies, female C57BL/6 mice (Charles River Laboratories) were administered a single dose of a vehicle control (1×PBS or 0.9% sodium chloride) or siRNA subcutaneously in the upper back. Bleeds were collected by retro-orbital bleeding. Serum were separated by centrifuging at 13000 rpm at room temperature for 10 mins. Mouse livers were collected and immediately snap frozen in liquid nitrogen, and stored at −80° C. for mRNA and siRNA analysis.
Mouse TTR Serum Protein Methods:_TTR serum protein was quantified using a commercially available enzyme-linked immunosorbent assay, 41-ALBMS-E01 (ALPCO, Salem, NH), according to manufacturer's instructions. Briefly, serum samples were diluted 4000 fold in 1× ALPCO Kit Dilution Buffer. An 8-point mouse TTR standard curve was generated using 2.5× serial dilutions, ranging from 0 to 1000 ng/mL. Standards and samples (100 uL) were added to the plate and allowed to incubate for 30 minutes at room temperature. […] After a wash in ALPCO Kit 1× Wash Buffer, plates were incubated for 10 minutes at room temperature in the dark with 3,3′,5,5′-tetramethybenzidine (TMB) and hydrogen peroxide in citric acid buffer at pH 3.3. Reactions were quenched with 100 μL of […] sulfuric acid per well. Absorbance at […] was read on a SpectraMax plate reader, and data were fit to a 4-parameter curve (y=(A−D)/(1+(x/C)^B)+D) as calculated in Softmax Pro Software to determine serum TTR protein levels expressed in ug/mL. Protein levels at each time point were normalized to the respective group average of vehicle control serum protein values.

[5] = TTR-3, antisense strand modified at position 7, primary mouse hepatocytes
[6] = TTR-4, modification at antisense position 7, primary mouse hepatocytes
[7] = antisense Position 5, Seq 3 (TTR)
[8] = antisense Position 7, Seq 3 (TTR)
[9] = antisense Position 7, Seq 4 (TTR)
[10] = TTR-3, antisense strand modified at position 5, primary mouse hepatocytes

On-target FU [2, 7]	On-target FU [2, 8]	On-target FU [2, 9]	Thermal melting temperature (Tm) [3, 7]	Thermal melting temperature (Tm) [3, 8]	Thermal melting temperature (Tm) [3, 9]	Substance	IC50 [1, 5]	IC50 [1, 6]	On-target TX [1, 7]	On-target TX [1, 8]	On-target TX [1, 9]	On-target, level of protein remaining with respect to PBS control [4, 8]	On-target, level of protein remaining with respect to PBS control [4, 9]	IC50 [1, 10]
0.02	−0.35	−0.24	84.0 °C	80.0 °C	82.1 °C	2′-(R)-Me-UNA [Mod 7 (R)]	0.0186 nM	0.0277 nM	0.50	0.15	−0.99	0.18	0.14	–
−0.10	−0.02	−0.14	84.3 °C	80.0 °C	83.0 °C	2′-(S)-Me-UNA [Mod 7 (S)]	0.0235 nM	0.0486 nM	0.43	0.72	−0.79	0.15	0.20	0.00254 nM
−0.78	−0.32	0.36	84.1 °C	81.2 °C	82.0 °C	3′-(R)-Me-UNA [Mod 6 (R)]	0.0348 nM	0.0358 nM	−0.28	0.67	−0.98	0.20	0.29	0.00157 nM
−0.38	−0.53	−0.09	84.0 °C	81.1 °C	82.0 °C	3′-(S)-Me-UNA [Mod 6 (S)]	0.0322 nM	0.0239 nM	0.18	0.06	−0.31	0.20	0.23	0.00316 nM
−0.16	−0.03	−0.33	84.2 °C	80.3 °C	82.0 °C	5′-(R)-Me-UNA [Mod 5 (R)]	0.0138 nM	0.0898 nM	0.45	0.50	−1.26	0.17	0.16	0.00147 nM
−0.87	−1.20	0.22	84.2 °C	80.3 °C	82.0 °C	5′-(S)-Me-UNA [Mod 5 (S)]	0.015 nM	0.0421 nM	−0.03	−0.04	−0.97	0.17	0.16	0.0011 nM
